Test system: human hepatocellular carcinoma cell HepG2
Assay: MTT method, growth inhibition of HepG2 by NX, TX and NX/TX combined application; expected additive effect by equivalent dose conversion
Format: cell-based
Details: for Efficacy of TX: from fitted single-use equation
Text: Title: the nitrohydroxyl compound (NX) is an anti-infectious drug. […] Taxol (TX) is an anticancer drug frequently used in clinic. In an NX/TX combined application, the growth of a human hepatocellular carcinoma cell HepG2 is inhibited in an MTT method. A method for quantitatively processing relevant indexes of synergistic/additive/antagonistic effect is described, which provides a reference for research and development of a novel anticancer compound.
Step 1: a dose-effect relationship table of dose levels of each single drug and each member in a combined group is prepared, and a respective dose-effect relationship curve equation is fitted. For dose-effect relationship data among the NX, the TX and the single drug, the NX+TX at a fixed proportion in combined use (1/1, μg/ml+ng/ml), and dose-effect relationship data of the TX at a fixed concentration (2 ng/ml)+the NX at different concentrations in the combined use, see a table 1.
Step 2: the dose is converted sequentially, and each line of the dose-effect relationship data formed into an expected additive efficacy curve band under a combined condition is calculated.
Descriptions on numerical calculation in each column of the table 2: (3) column: data in (2) column are calculated with the formula (2); (4) column: data in (3) column are calculated with the formula (1); (5) column: (1) column+(4) column; (6) column: data in (5) column are calculated with the formula (1).
Descriptions on numerical calculation in each column: (7) column: data in (1) column are calculated with the formula (1); (8) column: data in (7) column are calculated with the formula (2); (9) column: (2) column+(8) column; (10) column: data in (9) column are calculated with the formula (2); “-” indicates to be beyond the dose-effect range of the TX.
Descriptions on numerical calculation in each column: (3) column: from the table 2; (4) column: from the table 3; (5) column: from the table 1; (6) column: (5) column data/(3) column data; (7) column: (5) column data/(4) column data; (8) column: standards are referred to the previous CId calculation.

## CC(=O)O[C@H]1C(=O)[C@@]2(C)[C@H]([C@H](OC(=O)c3ccccc3)[C@]3(O)C[C@H](OC(=O)[C@H](O)[C@@H](NC(=O)c4ccccc4)c4ccccc4)C(C)=C1C3(C)C)[C@]1(OC(C)=O)CO[C@@H]1C[C@@H]2O [TX, Taxol]
Homo sapiens, HepG2, TX 0.5 ng/ml single use, read-out: Inhibition rate
  inhibition at 0.0005 µg/mL: 4.5%
Homo sapiens, HepG2, TX 1 ng/ml single use, read-out: Inhibition rate
  inhibition at 0.001 µg/mL: 14.1%
Homo sapiens, HepG2, TX 2 ng/ml single use, read-out: Inhibition rate
  inhibition at 0.002 µg/mL: 32.5%
Homo sapiens, HepG2, TX 4 ng/ml single use, read-out: Inhibition rate
  inhibition at 0.004 µg/mL: 59.3%
Homo sapiens, HepG2, TX 8 ng/ml single use, read-out: Inhibition rate
  inhibition at 0.008 µg/mL: 80.3%
Homo sapiens, HepG2, TX 16 ng/ml single use, read-out: Inhibition rate
  inhibition at 0.016 µg/mL: 87.4%
TX 0.5 ng/ml
  Efficacy of TX: 4.9763%
TX 0.6 ng/ml
  Efficacy of TX: 6.4296%
TX 0.7 ng/ml
  Efficacy of TX: 8.0213%
TX 0.8 ng/ml
  Efficacy of TX: 9.7270%
TX 0.9 ng/ml
  Efficacy of TX: 11.5241%
TX 1 ng/ml
  Efficacy of TX: 13.3922%
TX 1.2 ng/ml
  Efficacy of TX: 17.2688%
TX 1.4 ng/ml
  Efficacy of TX: 21.2305%
TX 1.6 ng/ml
  Efficacy of TX: 25.1792%
TX 1.8 ng/ml
  Efficacy of TX: 29.0423%
TX 2 ng/ml
  Efficacy of TX: 32.7687%
TX 2.4 ng/ml
  Efficacy of TX: 39.6901%
TX 2.8 ng/ml
  Efficacy of TX: 45.8191%
TX 3.2 ng/ml
  Efficacy of TX: 51.1569%
TX 3.6 ng/ml
  Efficacy of TX: 55.7657%
TX 4 ng/ml
  Efficacy of TX: 59.7311%
TX 5 ng/ml
  Efficacy of TX: 67.3956%
TX 6 ng/ml
  Efficacy of TX: 72.7395%
TX 7 ng/ml
  Efficacy of TX: 76.5600%
TX 8 ng/ml
  Efficacy of TX: 79.3653%
TX 10 ng/ml
  Efficacy of TX: 83.1039%
TX 12 ng/ml
  Efficacy of TX: 85.4029%
TX 14 ng/ml
  Efficacy of TX: 86.9144%
TX 16 ng/ml
  Efficacy of TX: 87.9614%

— patent publication US11205502B2, “Processing method and processing apparatus for efficacy of combined drug” (Institute of radiation medicine, academy of military …, priority 2015, dated 2021)
